Reference: US6590140B1, “Metal-regulated transporters and uses therefor” (Trustees of Dartmouth College, priority 1996, dated 2003)

What was measured:
[1] = system: divalent cation uptake system; conditions: total zinc; earlier studies (Fuhrmann and Rothstein 1968); read-out: apparent Km of zinc uptake by the divalent cation uptake system; cited from earlier work
[2] = system: zrt2 (ZHY2) cells; test: Zinc-limited growth, zrt2 mutant yeast; format: cell-based, Saccharomyces cerevisiae; conditions: zrt2, LZM, 16 hours
Description: Strains used were DY1457 (MATα ade6 can1 his3 leu2 trp1 ura3), ZHY1 (AMTα ade6 can1 his3 leu2 trp1 ura3 zrt1::LEU2), ZHY2 (MATα ade6 can1 his3 leu2 trp1 ura3 zrt2::HIS3), and ZHY3 (MATα ade6 can1 his3 leu2 trp1 ura3 zrt1::LEU2 zrt2::HIS3). Yeast were grown in YP or SD media (Sherman et al. (1986) Methods in Yeast Genetics, Cold Spring Harbor Laboratory, Cold Spring Harbor, N.Y.) supplemented with necessary auxotrophic requirements and either 2% glucose or 2% galactose. Zinc-limiting YP and SD agar plates contained either bathophenanthroline disulfonate (BPS, 200 μM) or EDTA (1 mM), respectively. […] The concentrations of free (i.e. unchelated) zinc were calculated using MAXCHELATOR software (Chris Patton, Stanford University). Cell number in liquid cultures was determined by measuring the absorbance of cell suspensions at 600 nm (OD600) and converting to cell number with a standard curve.
To further assess the role of the low affinity system as a source of zinc, growth of wild type and zrt2 cells in a zinc-limiting medium, LZM, supplemented with increasing amounts of zinc was examined. […] Number of cell divisions are plotted against [Zn]T and the calculated free zinc concentration ([Zn]F). […]

[3] = system: zrt1 strain; test: Cell-associated zinc, zrt1 strain; format: cell-based, Saccharomyces cerevisiae
Description: Zinc uptake assays were performed as described previously for iron uptake (Eide et al. (1992) J. Biol. Chem. 267:20774-20781) except that ^65ZnCl2 (Amersham) and LZM-EDTA were substituted for ^59FeCI3 and LIM-EDTA, respectively. Cells were incubated for 5 minutes in LZM-EDTA plus the indicated concentration of ^65Zn, collected on glass fiber filters (Schleicher and Schuell), washed with 10 ml ice-cold SSW (1 mM EDTA, 20 mM trisodium citrate, 1 mM KH2PO4, 1 mM CaCl2, 5 mM MgSO4, 1 mM NaCl pH 4.2), and cell-associated radioactivity was measured by liquid scintillation counting. […] Michaelis-Menten kinetic values were determined using […] software (Intellikinetics, Princeton, N.J.). […] The statistical significance of the differences of values relative to controls was determined with one-way analysis of variance (ANOVA) followed by a Dunnett multiple comparison test. β-galactosidase activity was assayed in cells harvested at an OD600 of 0.5-2.0 as described by Guarente (Guarente, L. (1983) Methods Enzymol. 101:181-191) and activity is expressed as the change in absorbance at 420 nm×1000 divided by (min×ml of culture used×OD600 of the culture). Cell-associated zinc was measured in parallel cultures supplemented with tracer amounts of ^65Zn (10 μM) and nonradioactive zinc to the indicated final concentration. […]

Structure (SMILES): [Zn+2] [zinc]
- Km [1]: ~500 µM
- calculated free zinc [Zn]F sufficient for maximum growth yield [2]: ~6 pM
- total zinc sufficient for maximum growth yield [2]: 10 µM
- cell-associated zinc ([3]; 10 μM total zinc): 133±12 pmol/10^6 cells
- cell-associated zinc ([3]; 1000 μM total zinc): 168±14 pmol/10^6 cells
